Assay results as given in publication PMC6429214, “Design, Synthesis and Biological Evaluation of Isoxazole-Based CK1 Inhibitors Modified with Chiral Pyrrolidine Scaffolds” (Molecules, 2019).
Where a name gives a salt, the structure may show the parent alone. One block for each compound: values may come before it.

Key:
human GST-CK1ε = biological target: T1, human GST-CK1ε (Homo sapiens, UniProt P49674); experiment: in-vitro kinase assay CK1ε; assay type: biochemical; settings: 10 µM ATP, mean ± SD, n = 3; for remaining activity at 10 µM: read-out: CK1ε Residual Activity [%] at 10 µM ± SD
T1 construct: purchased Invitrogen PV3500
T1 sequence (P49674 whole entry): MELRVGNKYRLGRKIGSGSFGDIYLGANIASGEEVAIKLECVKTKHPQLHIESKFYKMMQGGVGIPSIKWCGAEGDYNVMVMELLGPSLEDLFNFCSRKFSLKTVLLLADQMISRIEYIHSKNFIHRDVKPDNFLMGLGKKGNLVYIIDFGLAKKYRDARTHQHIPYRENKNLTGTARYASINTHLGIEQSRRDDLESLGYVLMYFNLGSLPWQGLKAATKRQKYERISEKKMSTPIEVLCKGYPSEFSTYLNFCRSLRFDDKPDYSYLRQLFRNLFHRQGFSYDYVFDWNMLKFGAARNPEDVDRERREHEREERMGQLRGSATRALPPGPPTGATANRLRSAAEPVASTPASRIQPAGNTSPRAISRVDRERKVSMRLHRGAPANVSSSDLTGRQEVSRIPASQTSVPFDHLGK
Procedure: (§1) In vitro kinase assays have been performed to both screen, as well as to calculate IC50 values of the compounds for CK1δ and ε. Each reaction was carried out using 2 μCi ^32P-γ-ATP in kinase buffer containing 25 mM Tris-HCl (pH = 7.5), 10 mM MgCl2, 100 µM EDTA, and 10 µM ATP. […] Recombinant human CK1δ transcription variant 1 (expressed and purified as GST fusion protein as described earlier) and human GST-CK1ε (PV3500; Invitrogen) were used as sources of enzyme, while α-casein (C6780; Sigma-Aldrich) was used as substrate. Kinase reactions were incubated for 30 min at 30 °C and then stopped with loading dye (50 mM Tris-HCl (pH = 6.8), 5% (v/v) β-mercaptoethanol (MSH), 10% (v/v) glycerol, 2% (w/v) sodium dodecyl sulfate (SDS), 0.1% (w/v) bromphenol blue). Subsequently, reactions were separated by sodium dodecyl sulfate polyacrylamide gel electrophoresis (SDS-PAGE) and phosphorylated protein bands were visualized on dried gels by autoradiography. The phosphorylated substrate protein bands were excised, and phosphorylation was quantified by Cherenkov counting. Dose-response analyses and calculation of IC50 values were carried out using GraphPad Prism 6 statistical software (San Diego, CA, USA).

[1] = MTT cell viability assay HT-29; assay type: cell-based, human; settings: human, HT-29 cells, mean ± SD
Procedure: (§2) The human colon adenocarcinoma cell line HT-29 was grown in McCoy’s 5A medium, whereas MCF7 cells were grown in DMEM medium. All media were supplemented with 10% fetal calf serum (FCS), 100 units/mL penicillin, 100 µg/mL streptomycin and 2 mM glutamine. All cells were grown at 37 °C in a humidified 5% carbon dioxide atmosphere.
(§3) In order to analyze the effects of selected inhibitors on the cell viability of HT-29 and MCF7 cells, MTT assays were performed. 1 × 10^4 cells/well were seeded in 96-well cell culture plates. After 24 h cells were treated with increasing concentrations of the indicated inhibitor compounds, with untreated and DMSO-treated cells as control. After an incubation period of 48 h, 10 µL of MTT solution (5 mg/mL in PBS) were added and cells were incubated for 4 h. MTT-containing medium was carefully removed and 100 µL acidic isopropanol (0.04 N HCl in isopropanol) per well were added. To dissolve formazan crystals, plates were shaken for 30 min on an orbital shaker in the dark. Finally, dissolved crystals were measured spectrophotometrically at 570 nm. All experiments were performed in triplicate with four technical replicates per assay. Results were normalized considering the mean optical density value of control wells as 100%. GraphPad Prism 6 software (San Diego, CA, USA) was used to calculate EC50 values.

[2] = biological target: T2, human CK1δ transcription variant 1 (Homo sapiens, UniProt P48730); experiment: in-vitro kinase assay CK1δ; assay type: biochemical; settings: 10 µM ATP, mean ± SD, n = 3; for remaining activity at 10 µM: read-out: CK1δ Residual Activity [%] at 10 µM ± SD
T2 construct: made in house; own knowledge
Excerpt: Human CK1δ transcription variant 1 (CK1δ TV1_NM_001893.4) has been amplified from the cDNA obtained from HT1080 cell line, using CK1δ_forward-primer: 5′-GGATCCATGGAGCTGAGAGTCGGGAACAG-3′ and CK1δ_reverse primer: 5′-GGATCCTCATCGGTGCACGACAGACTGA-3′. The CK1δ DNA construct was cloned into pSC-A cloning vector (Agilent technologies, Munich, Germany) with BamHI enzyme, to generate plasmids pGEX6-P3-GST-CK1δ TV1 (FP1417). Overexpression and purification of GST-CK1δ TV1 protein has been performed as described before.
as §1

[3] = MTT cell viability assay MCF-7; assay type: cell-based, human; settings: human, MCF-7 cells, mean ± SD
Procedure: as §2, §3

HT-29 cells = experiment: MTT cell viability assay HT-29; assay type: cell-based, human; settings: mean ± SD
Procedure: as §2, §3

MCF-7 cells = experiment: MTT cell viability assay MCF-7; assay type: cell-based, human; settings: mean ± SD
Procedure: as §2, §3

[4] = LC-MS of aqueous solutions with and without PEG; assay type: physicochemical; settings: LC-MS over 7 days, not in solutions without PEG
Excerpt: Since all analytical data for the originally employed inhibitors was consistent with the given structures, we postulate that the incorporation of an additional methylene group occurred via spontaneous Pictet-Spengler cyclization during crystallization. In line with this notion, PEG, which has been used in our soaking solutions, is known to generate formaldehyde traces that have been shown in the past to affect the derivatization of both, proteins and ligands. To further corroborate this hypothesis, we examined whether simple exposure of 29d/e to formaldehyde would give rise to the same Pictet-Spengler products 31a/b (Scheme 5). Indeed, when compounds 29d/e were treated with formaldehyde at room temperature 31a/b were formed readily and the obtained spectroscopic data was consistent with the predicted Pictet-Spengler products. In addition, aqueous solutions of 29d and 29e with and without PEG were analyzed by liquid chromatography-mass spectrometry (LC-MS) over a period of 7 days.
LC-MS was performed with a Bruker Esquire ~LC ion trap mass spectrometer (Bremen, Germany) in the positive ion mode (dry gas 9 L/min, nebulizer 35 psi, drying temperature 350 °C) after chromatographic separation using an Agilent 1100 HPLC system (Waldbronn, Germany) with a RP-8 column (Agilent Eclipse XDB-C8, 150 × 4.6 mm, 5 μm) and a 0.1% acetic acid/acetonitrile gradient.

IRAK4 = settings: cited from earlier work
p38α = tested on: p38α; design: method as in PMID 18763757; settings: cited from earlier work
Trk = tested on: Trk; design: method as in PMID 20336234; settings: cited from earlier work
CK1δ = tested on: CK1δ; design: method as in PMID 19591487; settings: cited from earlier work

SMILES: COc1ccc(-c2cc(C(=O)Nc3cc(-c4c(-c5ccc(F)cc5)noc4C(C)C)ccn3)n(CC3NCC(O)C3O)c2)cc1 (centres unmarked) (as salt: trifluoroacetate) [29d]
melting point: 191 to 193 °C

SMILES: COc1ccc(-c2cc(C(=O)Nc3cc(-c4c(-c5ccc(F)cc5)noc4C(C)C)ccn3)n(CC3NCC(O)C3O)c2)cc1 (centres unmarked) (as salt: trifluoroacetate) [29e]
melting point: 188 to 191 °C

remaining activity at 10 µM (human GST-CK1ε; 10 µM compound): 70 ± 21% | melting point: 157 to 158 °C | remaining activity at 10 µM ([2]; 10 µM compound): 48 ± 7%
SMILES: COc1ccc(-c2cc(C(=O)Nc3cc(-c4c(-c5ccc(F)cc5)noc4C(C)C)ccn3)n(C)c2)cc1 [28a, N-{4-[3-(4-Fluorophenyl)-5-isopropylisoxazol-4-yl]pyridin-2-yl}-4-(4-methoxyphenyl)-1-methyl-1H-pyrrole-2-carboxamide]
viability at 48 h, 5 µM [1]: 111 ± 19% | viability at 48 h, 10 µM [1]: 98 ± 22% | viability at 48 h, 20 µM [1]: 78 ± 10% | viability at 48 h, 5 µM [3]: 103 ± 16% | viability at 48 h, 10 µM [3]: 88 ± 9% | viability at 48 h, 20 µM [3]: 54 ± 5%

remaining activity at 10 µM (human GST-CK1ε; 10 µM compound): 47 ± 11% | remaining activity at 10 µM ([2]; 10 µM compound): 48 ± 4%
SMILES: COc1ccc(-c2cc(C(=O)Nc3cc(-c4c(-c5ccc(F)cc5)noc4C(C)C)ccn3)n(C)c2)c(OC)c1 [28b, 4-(2,4-Dimethoxyphenyl)-N-{4-[3-(4-fluorophenyl)-5-isopropylisoxazol-4-yl]pyridin-2-yl}-1-methyl-1H-pyrrole-2-carboxamide]
viability at 48 h, 5 µM [1]: 94 ± 23% | viability at 48 h, 10 µM [1]: 59 ± 14% | viability at 48 h, 20 µM [1]: 52 ± 10% | viability at 48 h, 5 µM [3]: 89 ± 13% | viability at 48 h, 10 µM [3]: 84 ± 11% | viability at 48 h, 20 µM [3]: 79 ± 12%

IC50 (human GST-CK1ε): 1.5 ± 0.3 µM | remaining activity at 10 µM (human GST-CK1ε; 10 µM compound): 18 ± 1% | EC50 (HT-29 cells; Homo sapiens, HT-29, 48 h): 24000 ± 6000 nM | IC50 [2]: 0.45 ± 0.07 µM | remaining activity at 10 µM ([2]; 10 µM compound): 7.7 ± 0.2% | EC50 (MCF-7 cells; Homo sapiens, MCF7, 48 h): 39000 ± 12000 nM
SMILES: CC(C)c1onc(-c2ccc(F)cc2)c1-c1ccnc(NC(=O)c2cccn2C[C@H]2NC[C@H](O)[C@@H]2O)c1 [29c, (2R,3R,4S)-2-{[2-({4-[3-(4-Fluorophenyl)-5-isopropylisoxazol-4-yl]pyridin-2-yl}carbamoyl)-1H-pyrrol-1-yl]methyl}-3,4-dihydroxypyrrolidin-1-ium trifluoroacetate]
viability at 48 h, 5 µM [1]: 80 ± 16% | viability at 48 h, 10 µM [1]: 78 ± 11% | viability at 48 h, 5 µM [3]: 90 ± 10% | viability at 48 h, 10 µM [3]: 81 ± 5%

SMILES: COc1ccc(-c2cc(C(=O)Nc3cc(-c4c(-c5ccc(F)cc5)noc4C(C)C)ccn3)n(CC3NCC(O)C3O)c2)cc1 (centres unmarked) [29e]
IC50 (human GST-CK1ε): 0.063 ± 0.009 µM | CK1ε Residual Activity [%] at 10 µM ± SD (human GST-CK1ε; 10 µM compound): 14 ± 3% | HT-29 Cell Viability [%] 5 µM (HT-29 cells; 5 µM, 48 h): 75 ± 13% | HT-29 Cell Viability [%] 10 µM (HT-29 cells; 10 µM, 48 h): 42 ± 10% | HT-29 Cell Viability [%] 20 µM (HT-29 cells; 20 µM, 48 h): 11 ± 3% | EC50 (HT-29 cells; 48 h): 8800 ± 800 nM | formation of Pictet-Spengler products in aqueous solution with PEG [4]: significant product formation | IC50 [2]: 0.047 ± 0.004 µM | CK1δ Residual Activity [%] at 10 µM ± SD ([2]; 10 µM compound): 3.4 ± 0.7% | MCF-7 Cell Viability [%] 5 µM (MCF-7 cells; 5 µM, 48 h): 90 ± 27% | MCF-7 Cell Viability [%] 10 µM (MCF-7 cells; 10 µM, 48 h): 58 ± 18% | MCF-7 Cell Viability [%] 20 µM (MCF-7 cells; 20 µM, 48 h): 8.0 ± 3.4% | EC50 (MCF-7 cells; 48 h): 10000 ± 2000 nM

IC50 (human GST-CK1ε): 0.1 ± 0.014 µM | remaining activity at 10 µM (human GST-CK1ε; 10 µM compound): 9.7 ± 1.6% | EC50 (HT-29 cells; Homo sapiens, HT-29, 48 h): 5400 ± 400 nM | IC50 [2]: 0.037 ± 0.004 µM | remaining activity at 10 µM ([2]; 10 µM compound): 2.8 ± 0.5% | EC50 (MCF-7 cells; Homo sapiens, MCF7, 48 h): 9600 ± 800 nM
SMILES: COc1ccc(-c2cc(C(=O)Nc3cc(-c4c(-c5ccc(F)cc5)noc4C(C)C)ccn3)n(C[C@H]3NC[C@H](O)[C@@H]3O)c2)c(OC)c1 [29f]
viability at 5 µM (HT-29 cells; Homo sapiens, HT-29, 48 h, 5 µM): 50 ± 10% | viability at 10 µM (HT-29 cells; Homo sapiens, HT-29, 48 h, 10 µM): 25 ± 5% | viability at 20 µM (HT-29 cells; Homo sapiens, HT-29, 48 h, 20 µM): 9.4 ± 3% | viability at 5 µM (MCF-7 cells; Homo sapiens, MCF7, 48 h, 5 µM): 87 ± 5% | viability at 10 µM (MCF-7 cells; Homo sapiens, MCF7, 48 h, 10 µM): 33 ± 7% | viability at 20 µM (MCF-7 cells; Homo sapiens, MCF7, 48 h, 20 µM): 3.9 ± 0.2%

IC50 (human GST-CK1ε): 0.056 ± 0.005 µM | EC50 (HT-29 cells; 48 h): 1100 ± 100 nM | EC50 (HT-29 cells; Homo sapiens, HT-29, 48 h): < 2000 nM | IC50 [2]: 0.011 ± 0.001 µM | EC50 (MCF-7 cells; 48 h): 1300 ± 200 nM | EC50 (MCF-7 cells; Homo sapiens, MCF7, 48 h): < 2000 nM
SMILES: COc1ccc(-c2cc(C(=O)Nc3cc(-c4c(-c5ccc(F)cc5)noc4C(C)C)ccn3)n3c2CN2C[C@H](O)[C@H](O)[C@H]2C3)cc1 [31a, (1R,2S,10aR)-N-{4-[3-(4-Fluorophenyl)-5-isopropylisoxazol-4-yl]pyridin-2-yl}-1,2-dihydroxy-6-(4-methoxyphenyl)-2,3,10,10a-tetrahydro-1H,5H-dipyrrolo[1,2-a:1’,2’-d]pyrazine-8-carboxamide]

IC50 (human GST-CK1ε): 0.196 ± 0.026 µM | EC50 (HT-29 cells; 48 h): 1400 ± 200 nM | EC50 (HT-29 cells; Homo sapiens, HT-29, 48 h): < 2000 nM | IC50 [2]: 0.024 ± 0.004 µM | EC50 (MCF-7 cells; 48 h): 1900 ± 300 nM | EC50 (MCF-7 cells; Homo sapiens, MCF7, 48 h): < 2000 nM
SMILES: COc1ccc(-c2cc(C(=O)Nc3cc(-c4c(-c5ccc(F)cc5)noc4C(C)C)ccn3)n3c2CN2C[C@@H](O)[C@@H](O)[C@@H]2C3)cc1 [31b, (1S,2R,10aS)-N-{4-[3-(4-Fluorophenyl)-5-isopropylisoxazol-4-yl]pyridin-2-yl}-1,2-dihydroxy-6-(4-methoxyphenyl)-2,3,10,10a-tetrahydro-1H,5H-dipyrrolo[1,2-a:1’,2’-d]pyrazine-8-carboxamide]

SMILES: Cc1cc(Nc2ncc(-c3nc4ccncc4s3)c(N[C@@H]3C[C@H](CO)[C@@H](O)[C@H]3O)n2)cc(C)n1 [compound 4]
IC50 (IRAK4): 0.3 nM

SMILES: CC(C)C(C)Nc1cc(-c2[nH]c(SC[C@@H](O)CO)nc2-c2ccc(F)cc2)ccn1 (some centres unmarked) [compound 5]
IC50 (p38α): 15 nM

SMILES: C[C@]12O[C@H](C[C@]1(O)CO)n1c3ccccc3c3c4c(c5c6ccccc6n2c5c31)CNC4=O [compound 7]
IC50 (Trk): 25 nM

SMILES: COc1ccc(/C=C/C(=O)Nc2cc(-c3c(-c4ccc(F)cc4)noc3C(C)C)ccn2)c(OC)c1 [compound 8]
IC50 (CK1δ): 33 nM
